Laboratory results as given in paper PMC10375533, “Preference of Bacterial Rhamnosyltransferases for 6-Deoxysugars Reveals a Strategy To Deplete O-Antigens” (Journal of the American Chemical Society, 2023).
Entries after “also recorded” stand apart in the source; their conditions may differ. Like-named read-outs stand apart in the source and are kept apart here. One block for each compound: values may come before it.

Molecular target: T. thermophilus RfbF (Thermus thermophilus, UniProt Q72KB9)
Test: Isothermal titration calorimetry (ITC) binding measurements with RfbF
Conditions: for ΔG / ΔH / ΔS / KD / binding to RfbF by ITC (in words) / Kd / n-value (stoichiometry): ITC; for fold increase in KD relative to dTDP-β-L-Rha: ITC with RfbF, compared to the native donor; for n-value (stoichiometry): ligands with sigmoidal binding curves, SD in parentheses, n = 3
[1] = 25 °C, ligand titrated into 110 µM RfbF
[2] = 25 °C, ligand titrated into 110 µM RfbF, one-site model, spread = SD, triplicate
[3] = ligand titrated into 110 µM RfbF
[4] = KD, 25 °C, ligand titrated into 110 µM RfbF, one-site model, spread = SD, triplicate

T. thermophilus RfbF, sequence (Q72KB9 entry or part of it): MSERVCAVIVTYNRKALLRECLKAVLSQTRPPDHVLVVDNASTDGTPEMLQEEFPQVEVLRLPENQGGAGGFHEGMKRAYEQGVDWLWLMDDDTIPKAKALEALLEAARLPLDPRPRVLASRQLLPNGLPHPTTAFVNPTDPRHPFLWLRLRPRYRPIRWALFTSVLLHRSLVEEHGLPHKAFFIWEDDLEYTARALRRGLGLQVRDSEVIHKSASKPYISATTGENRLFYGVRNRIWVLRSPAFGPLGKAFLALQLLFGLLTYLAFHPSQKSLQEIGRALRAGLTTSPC

SMILES: CC1OC(OP(=O)(O)OP(=O)(O)OCC2OC(n3cnc4c(=O)[nH]c(N)nc43)C(O)C2O)C(O)C(O)C1O [GDP-β-L-Rha, GDP-β-L-rhamnose]
ΔG [1]: N/B
ΔH [1]: N/B
ΔS [1]: N/B
KD [2]: N/B
binding to RfbF by ITC (in words) [3]: no measurable; also recorded: no binding

Kd (5-10 mM ligand titrated into 110 µM RfbF, read-out: KD (beyond measurable limit)): > 1000 µM
SMILES: CC1OC(OP(=O)(O)O)C(O)C(O)C1O [L-Rha-1-phosphate, L-Rhamnose-1-phosphate, reference compound]

SMILES: CC1OC(OP(=O)(O)OP(=O)(O)OCC2OC(n3ccc(=O)[nH]c3=O)C(O)C2O)C(O)C(O)C1O [UDP-β-L-Rha, UDP-β-L-rhamnose]
fold increase in KD relative to dTDP-β-L-Rha: ~4.5 fold
ΔG [1]: 8.55 (3.65) kcal/mol
ΔH [1]: -6.72 (1.01) kcal/mol
ΔS [1]: -51.2 (14.7) cal/mol·K
n-value (stoichiometry): 1.30 (0.28)
Kd [4]: 36.1 ± 10.7 µM

SMILES: Cc1cn([C@H]2C[C@H](O)[C@@H](COP(=O)(O)OP(=O)(O)O)O2)c(=O)[nH]c1=O [dTDP, reference compound]
binding to RfbF by ITC (in words) [3]: no binding profile is observed; also recorded: did not bind

SMILES: Cc1cn(C2CC(O)C(COP(=O)(O)OP(=O)(O)OC3OC(CO)C(O)C(O)C3O)O2)c(=O)[nH]c1=O [dTDP-α-D-Glc, dTDP-a-D-glucose, reference compound]
fold increase in KD relative to dTDP-β-L-Rha (listed as dTDP-α-Glc): ~75 fold
Kd [4]: 637 ± 96 µM

SMILES: Cc1cn(C2CC(O)C(COP(=O)(O)OP(=O)(O)OC3OC(C)C(O)C(O)C3O)O2)c(=O)[nH]c1=O [dTDP-α-L-Rha, dTDP-a-L-rhamnose]
ΔG [1]: N/B
ΔH [1]: N/B
ΔS [1]: N/B
KD [2]: N/B
binding to RfbF by ITC (in words) [3]: no detectable binding
binding to RfbF by ITC (in words) (ligand titrated into 110 µM RfbF, listed as dTDP-a-L-Rha): no measurable

SMILES: Cc1cn(C2CC(O)C(COP(=O)(O)OP(=O)(O)OC3OC(C)C(O)C(O)C3O)O2)c(=O)[nH]c1=O [dTDP-β-L-6dTal, dTDP-6-deoxy-β-L-talose]
ΔG [1]: 0.415 (2.847) kcal/mol
ΔH [1]: -8.17 (2.70) kcal/mol
ΔS [1]: -28.8 (3.7) cal/mol·K
binding to RfbF by ITC (in words) [3]: comparable affinity as the native substrate
n-value (stoichiometry): 0.934 (0.028)
Kd [4]: 16.5 µM

SMILES: Cc1cn(C2CC(O)C(COP(=O)(O)OP(=O)(O)OC3OC(C)C(O)C(O)C3O)O2)c(=O)[nH]c1=O [dTDP-β-L-Fuc, dTDP-β-L-fucose]
fold increase in KD relative to dTDP-β-L-Rha: ~15 fold
Kd [4]: 126 ± 1 µM

SMILES: Cc1cn(C2CC(O)C(COP(=O)(O)OP(=O)(O)OC3OC(CO)C(O)C(O)C3O)O2)c(=O)[nH]c1=O [dTDP-β-L-Man, dTDP-β-L-mannose]
fold increase in KD relative to dTDP-β-L-Rha: 60 fold
Kd [4]: 496 ± 56 µM
